Laboratory results: the NIST ThermoML archive (doi:10.1016/j.fluid.2010.02.043)
Numbers after ± are expanded uncertainties.

Conditions: Liquid, Ebulliometric method (Recirculating still)

vapor or sublimation pressure (366.97 K) | vapor or sublimation pressure (378.82 K) | vapor or sublimation pressure (387.59 K) | vapor or sublimation pressure (397.84 K) | vapor or sublimation pressure (403.31 K) | vapor or sublimation pressure (408.91 K) | vapor or sublimation pressure (413.59 K) | vapor or sublimation pressure (418.73 K) | vapor or sublimation pressure (422.25 K) | vapor or sublimation pressure (426.39 K) | Structure (SMILES) | vapor or sublimation pressure (332.19 K) | vapor or sublimation pressure (346.26 K) | vapor or sublimation pressure (354.42 K) | vapor or sublimation pressure (362.18 K) | vapor or sublimation pressure (366.46 K) | vapor or sublimation pressure (371.63 K) | vapor or sublimation pressure (375.04 K) | vapor or sublimation pressure (378.75 K) | vapor or sublimation pressure (382.02 K)
– | – | – | – | – | – | – | – | – | – | CSSC [2,3-dithiabutane] | 18.2 ± 0.4 kPa | 31.1 ± 0.4 kPa | 41.7 ± 0.4 kPa | 53.9 ± 0.4 kPa | 61.9 ± 0.4 kPa | 72.9 ± 0.4 kPa | 81.1 ± 0.4 kPa | 90.9 ± 0.4 kPa | 100.6 ± 0.5 kPa
15.8 ± 0.4 kPa | 24.1 ± 0.4 kPa | 32.3 ± 0.4 kPa | 44.4 ± 0.4 kPa | 52.8 ± 0.4 kPa | 62.2 ± 0.4 kPa | 71.1 ± 0.4 kPa | 82.1 ± 0.4 kPa | 90.5 ± 0.4 kPa | 100.7 ± 0.4 kPa | CCSSCC [3,4-dithiahexane] | – | – | – | – | – | – | – | – | –
